For assay [1], the system named is primary human macrophages infected with S. aureus. Description: "peptides during differentiation" model, S. aureus phagocytosis by flow cytometry. The note with it: for contribution to phagocytosis: peptides during monocyte differentiation, then infection. Format: cell-based. As for the experimental part:
(§1) To assess the peptides influence on macrophages antibacterial properties, three different infection models studying intracellular bacteria survival, as outlined in Figures 3A, 5A, and 5D, were adopted. In all models, selected concentrations of peptides were used: 65 μM IDR-1018; 10 μM CATH-2; 10 μM LL-37.
(§2) The first step concerned the “peptides during infection” model, where cells were washed twice before incubation with the peptides for 24 h and subsequently bacteria were directly added to the culture without any washing step. In a subsequent step we assessed the “peptides during differentiation”, where peptides were added to the differentiation media for the first 3 days and removed after the regular media change; cells were washed twice before infection. In the third step we tested “peptides with MSCs”, where macrophages were cultured in presence of MSCs and peptides for 24 h; before infection cells were washed twice. All washing steps, before or after infection, were performed using warm α-MEM.
(§3) In all three models described, the same S. aureus infection protocol was applied. An overnight bacterial culture was diluted in α-MEM to reach a final inoculum concentration of 1 x 10^7 CFU/mL, and opsonized in 5% human pooled serum (HPS) for 15 min at 37°C. Opsonized S. aureus was added to the culture at a multiplicity of infection (MOI) = 1, meaning 1 bacterium per eukaryotic cell. To synchronize bacterial uptake, plates were centrifuged for 5 min, 110 x g at RT, and then moved to the incubator at 37°C, 5% CO2 for additional 25 min or 24 h. To study intracellular bacterial survival, after 30 min the cells were washed twice and cultured in media supplemented with 100 μg/mL gentamicin and 20 μg/mL lysostaphin for 1 h. Afterwards, cells were washed twice and incubated in media with only 5 μg/mL gentamicin. This treatment allows only intracellular bacteria to survive, as both gentamicin and lysostaphin are unable to penetrate mammalian cell membranes within short time periods ([Hamza et al., 2013]; [Hamza and Li, 2014]).
(§4) Samples were analyzed by flow cytometry and CFU counting at 30 min and 24 h after infection. Cells for flow cytometry were detached from the culture plate using 1mM DPBS/EDTA in combination with gentle scraping. When macrophages were cultured together with MSCs, samples were first trypsinzed and then scraped in DPBS/EDTA if cells were still attached to the bottom of the culture plate. Cells were moved to a 96-well plate and fixed in paraformaldehyde 4% before analysis. Samples were measured with MACSquant VYB (Miltenyi Biotech) flow cytometer and data analyzed with FlowJo. […] Non-infected samples were used to set GFP fluorescence baseline and define the proportion of infected, GFP-positive cells.

Assay [2] deals with intracellular S. aureus in primary human macrophages. Nature of the assay: "peptides during differentiation" model, intracellular S. aureus by CFU counting. Format: cell-based. To be noted: 30 min and 24 h, n = 6. As for the experimental part:
as §1, §2
as §3, with “This treatment allows only intracellular bacteria to survive, as both gentamicin and lysostaphin are unable to penetrate mammalian cell membranes within short time periods ([Hamza et al., 2013]; [Hamza and Li, 2014]).” left out
(§5) To quantify the numbers of intracellular bacteria, cells were lysed with Triton X 0,1% and then plated on Todd-Hewitt agar plates in serial dilutions. Plates were incubated overnight at 37°C after which colonies were counted.

Assay [3] has as its system primary human macrophages. Description: Human cytokine array G5 after LPS and peptide stimulation. Format: cell-based. The note with it: 24 h LPS and peptides, n = 2. As for the experimental part: Qualitative expression of various cytokines and chemokines was measured in duplicate for selected conditions by human cytokine array G5, according to the manufacturer’s instructions.

Assay [4] has as its system primary human macrophages infected with S. aureus. Description: Confocal imaging, manual counting of intracellular bacteria ("peptides during infection" model). It is filed as cell-based. The note with it: 30 min infection, 50 randomly chosen cells. On the procedure:
According to the “peptides during infection” model, after 30 min infection cells were harvested and fixed as described for flow cytometry analysis. Cells membranes were stained with 3 μg/mL Alexa Fluor 647-labelled Wheat Germ Agglutinin (WGA) for 10 min at RT, on a shaking plate. Then, samples were transferred to CELLview slide previously coated with poly-L-lysine, and imaged on a Leica TCS SP5 microscope with a HCX PL AP CS 63x/1.40-0.60 OIL objective (Leica Microsystems). For each condition, the number of intracellular bacteria was counted in 50 randomly chosen cells. Images were adjusted for publication using Image J Fiji.

For assay [5] the following is noted: cited from earlier work; for binding to LPS: "silent killing" mechanism, ref Coorens et al., 2017b. An excerpt: One may argue that the inhibition of LPS-mediated activation of macrophages was not caused by peptides’ direct interaction with the immune cells. It was shown via a mechanism named “silent killing” that CATH-2 and LL-37 bind LPS to inhibit macrophages receptors activation ([Coorens et al., 2017b]).

Assay [6] relates to intracellular S. aureus in primary human macrophages. Nature of the assay: "peptides during infection" model, intracellular S. aureus by CFU counting. Format: cell-based. As for the experimental part:
as §1, §2, §3, §5

The test system of assay [7] is primary human macrophages. Nature of the assay: Macrophage phenotype markers CD80 / CD163 by flow cytometry. It is filed as cell-based. To be noted: 24 h, selected peptide concentrations alone or with LPS, n = 3. On the procedure: After 7 days differentiation, macrophages were incubated with fresh media with LPS, IL-4, and optimal concentrations of peptides alone or in combination with LPS. After 24 h stimulation, macrophages were detached from the culture plate and processed for staining into a 96-well plate. All washing steps were performed with cold 0,1% (w/v) bovine serum albumin (BSA)/PBS and centrifugation at 5 min, 500 x g. A panel of surface molecules was selected, based on previous reports for human macrophage polarization ([Ambarus et al., 2012]). The staining solutions were prepared by diluting the following fluorochrome-conjugated antibodies in PBS with 0,1% BSA and 1% (v/v) heat-inactivated human serum: CD16 (1:50); CD80 (1:50); CD163 (1:50). As a negative control, staining solution without antibodies was used. Cells were incubated with staining solutions for 30 min on ice, in the dark. Markers expression was measured via flow cytometer (FACSVerse, BD) and data analyzed using FlowJo.

Assay [8] concerns Staphylococcus aureus strain SH1000. Nature of the assay: Peptides direct antibacterial properties, broth micro-dilution, growth by OD 600 nm. It is filed as cell-based. To be noted: for direct antibacterial effect on S. aureus growth: broth micro-dilution in THB, inoculum 5 x 10^5 CFU/mL, 37°C, OD 600 nm every 5 min for 12 h, concentration range of peptide. On the procedure:
All experiments used GFP-labelled Staphylococcus aureus strain SH1000, transformed with a GFP-expressing plasmid pCM29 to constitutively express GFP, as previously described ([Boero et al., 2021]). Bacteria were grown overnight in Todd-Hewitt broth (THB) with 10 μg/mL chloramphenicol to reach stationary phase.
Peptides were diluted at different concentrations in α-MEM supplemented with 10% FBS or in THB when testing their effects on macrophages or bacteria, respectively.
Peptides direct antibacterial properties were determined by broth micro-dilution method. Overnight bacterial suspension was diluted in THB to reach a final inoculum concentration of 5 x 10^5 colony-forming units per mL (CFU/mL). Bacterial suspension and peptides dilutions were mixed in equal parts in a flat-bottom 96-well plate in triplicates in a total volume of 200 μL, and incubated at 37°C. Bacterial growth was monitored by measuring OD (600nm) continuously every 5 minutes for 12 h in Clariostar plate reader (BMG labtech) with gentle shaking before each measurement.
(Broth dilution looks for growth in wells or tubes with falling amounts of substance.)

Assay [9] concerns primary human macrophages. Description: LPS-induced TNF-α and IL-10 release of macrophages (ELISA). To be noted: for inhibition of macrophage LPS-mediated activation: 10 ng/mL LPS O111:B4, 24 h, TNF-α and IL-10 by ELISA. Format: cell-based. On the procedure:
Isolated monocytes were seeded in a 24-well plate at a density of 300,000 cells/well, except where otherwise stated. Monocytes were differentiated to macrophages by culture for 7 days in α-Minimum Essential Medium (α-MEM) supplemented with 10% (v/v) hyclone fetal bovine serum (hyFBS), 100 U/mL penicillin- streptomycin (1% p/s), and 40 ng/mL human recombinant M-CSF. Culture media was refreshed after 3-4 days.
Monocytes were seeded in a 96-well plate at a density of 150,000 cells/well. After 7 days differentiation, macrophages were incubated with fresh media containing a range of peptides concentrations alone or in combination with 10 ng/mL LPS O111:B4 from E. coli. After 24 h stimulation, the supernatant was collected to measure LDH levels or TNF-α and IL-10 by ELISA, according to the manufacturer’s instructions. Both LDH and ELISA assays were performed in three independent experiments with measurements in triplicate.
(In an ELISA, binding on a coated surface is turned into a signal by an enzyme label.)

Assay [10] has as its system primary human macrophages infected with S. aureus. Description: "peptides during infection" model, S. aureus phagocytosis by flow cytometry. It is filed as cell-based. On the procedure:
as §1, §2, §3, §4
For orientation: A flow cytometer gives signals particle by particle.

Assay [11] concerns primary human macrophages. To be noted: ref Pena et al., 2013; cited from earlier work. An excerpt: In addition to TNF-α and IL-10, the peptides affected the expression of several other cytokines involved in immune cells’ activation and recruitment at the inflammation site (Figure 2E).
Setting [12] is: peptides 24 h before and during infection, 65 μM IDR-1018, 10 μM CATH-2, 10 μM LL-37, MOI 1, 30 min, n = 9.
Where [13] appears, read: peptides in differentiation medium for the first 3 days, MOI 1, 30 min, n = 6.

Entries after “also recorded” stand apart in the source; their conditions may differ. Some results are limits rather than exact numbers.

As for “LLGDFFRKSKEKIGKEFKRIVQRIKDFLRNLVPRTES [LL-37, human cathelicidin host defense peptide, InVivogen]”, the contribution to phagocytosis entry in assay [1] is listed as “had no impact”. For the same substance, the “macrophage intracellular killing (CFU)” value in [2] is on record as “had no impact”. In addition, the “expression of MIP-1β, RANTES and MCP-1,2,3” value in assay [3] is reported as “stronger inhibition of the LPS activation of macrophages”. The “bacterial uptake by macrophages, manual counting of intracellular bacteria” value (shortened to “bacterial uptake by macrophages”) in assay [4] was “did not provide such effect”. The “binding to LPS” value in assay [5] is given as “bind LPS”. For the same substance, in assay [6] (n = 9), the “effect on S. aureus surviving intracellularly (CFU), 30 min and 24 h” value is reported as “no effects were observed”. The “polarization of macrophages toward M1 (CD80) or M2 (CD163) phenotype” value in assay [7] is “kept macrophages in an intermediate state”. The “direct antibacterial effect on S. aureus growth” value (shortened to “direct antibacterial effect”) in assay [8] (n = 3) was “did not show antibacterial effects at any concentration tested”. Besides, the “inhibition of macrophage LPS-mediated activation” value in assay [9] was “inhibited macrophage lipopolysaccharide-mediated activation”.
Turning to “RFGRFLRKIRRFRPKVTITIQGSARF-NH2 [CATH-2, chicken cathelicidin host defense peptide, CPC Scientific]”, the contribution to phagocytosis result in [1] is given as “lost its contribution to phagocytosis; also recorded: had no impact”. Also, in [2], the “macrophage intracellular killing (CFU)” value is “had no impact”. Also, the “bacterial uptake by macrophages” value in assay [4] is recorded as “reduced the bacterial uptake by macrophages”. The “bacterial load, geometric mean of GFP signal, 30 min” value in assay [10] (setting [12]) is recorded as “slightly reduced the bacterial load in macrophages”. The “binding to LPS” value in assay [5] is given as “bind LPS”. Besides, the “number of S. aureus surviving intracellularly (CFU), 30 min” value in assay [6] (10 μM CATH-2, 65 μM IDR-1018, 10 μM LL-37, n = 9) is “significantly reduced”. For the same substance, in assay [6] (gentamicin and lysostaphin after 30 min, n = 9), the “number of S. aureus surviving intracellularly (CFU), 24 h” value is listed as “not statistically significant; also recorded: comparable to the non-stimulated group”. Besides, the “polarization of macrophages toward M1 (CD80) or M2 (CD163) phenotype” value in [7] is listed as “kept macrophages in an intermediate state”. Further, in assay [8] (THB, 12 h growth curve, compared with LPS inhibition assay), the “concentration arresting S. aureus growth, relative to that needed to inhibit macrophage LPS-mediated activation” value amounted to 10 times lower. Moreover, the “direct antibacterial effect” value in assay [8] (n = 3) is on record as “had direct antibacterial properties”. Also, the “inhibition of macrophage LPS-mediated activation” value in assay [9] is “inhibited macrophage lipopolysaccharide-mediated activation”.
For the substance “VRLIVAVRIWRR-NH2 [IDR-1018, bovine-derived cathelicidin host defense peptide, CPC Scientific]”, in [1] (setting [13]), the “number of internalized bacteria (geometric mean of GFP signal), 30 min” value is recorded as “significantly reduced” and the “proportion of infected macrophages, 30 min” value was “significantly reduced”. For the same substance, in assay [2], the “macrophage intracellular killing (CFU)” value is reported as “had no impact”. For the same substance, the “bacterial uptake by macrophages” value in assay [4] was “reduced the bacterial uptake by macrophages”. For the same substance, in assay [10] (setting [12]), the “bacterial load, geometric mean of GFP signal, 30 min” value is reported as “markedly decrease phagocytosis” and the “fraction of infected cells (macrophages that phagocytosed at least 1 bacterial cell), 30 min” value is on record as “significantly reduced the number of infected cells”. Further, the “amount of phagocytosed S. aureus, 24 h” value in assay [10] (peptides during infection model, 24 h after infection, n = 9 (Figure S5)) is “reduced the amount of phagocytosed S. aureus”. The “binding affinity to LPS” value in assay [5] (ref Wieczorek et al., 2010) is “did not show significant binding affinity to LPS”. Also, the “effect on S. aureus surviving intracellularly (CFU), 30 min and 24 h” value in [6] (n = 9) is listed as “no effects were observed”. Also, in assay [8] (THB, 12 h growth curve, OD 600 nm, n = 3), the “concentration from which the start of S. aureus exponential growth is delayed” value was at least 65 µM. For the same substance, the “direct antibacterial effect” value in assay [8] (n = 3) is on record as “did not show antibacterial effects at any concentration tested”. Besides, the “inhibition of macrophage LPS-mediated activation” value in assay [9] is on record as “inhibited macrophage lipopolysaccharide-mediated activation”. Also, the “concentration required for inhibition of LPS-mediated activation, compared among peptides” value in [9] (10 ng/mL LPS, 24 h, TNF-α and IL-10 ELISA) is on record as “higher concentrations of IDR-1018 were required”. In addition, the “polarization of macrophages toward M1 or M2 phenotype” value in assay [11] is listed as “did not correlate with the polarization of macrophages toward a clear M1 or M2 phenotype”.

These data come from article PMC9563556, “Antibacterial and anti-inflammatory properties of host defense peptides against Staphylococcus aureus” (iScience, 2022).
